Experimental data reported in PubChem BioAssay (NCI).
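Assay format: 96-well plates, 48-hour exposure. TGI marks complete inhibition of growth.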

Tests used:
Experiment in all cases: growth of human tumour cells (NCI), 48 h
[1] = tested on: MOLT-4 leukemia
[2] = tested on: OVCAR-5 ovarian
[3] = tested on: NCI-H23 lung
[4] = tested on: SW-620 colon
[5] = tested on: K-562 leukemia
[6] = tested on: KM12 colon
[7] = tested on: HT29 colon
[8] = tested on: SNB-19 CNS
[9] = tested on: MDA-MB-435
[10] = tested on: UO-31 renal
[11] = tested on: HOP-92 NSCLC
[12] = tested on: MALME-3M melanoma
[13] = tested on: NCI-H522 lung
[14] = tested on: DU-145 prostate
[15] = tested on: HOP-62 NSCLC
[16] = tested on: SNB-75 CNS
[17] = tested on: T-47D breast
[18] = tested on: U251 CNS
[19] = tested on: 786-0 renal
[20] = tested on: SK-MEL-28 melanoma
[21] = tested on: NCI/ADR-RES ovarian
[22] = tested on: OVCAR-3 ovarian
[23] = tested on: SK-OV-3 ovarian
[24] = tested on: UACC-257 melanoma
[25] = tested on: M14 melanoma
[26] = tested on: A498 renal
[27] = tested on: COLO 205 colon
[28] = tested on: OVCAR-8 ovarian
[29] = tested on: MDA-MB-231 breast
[30] = tested on: ACHN renal
[31] = tested on: HCT-15 colon
[32] = tested on: OVCAR-4 ovarian
[33] = tested on: UACC-62 melanoma
[34] = tested on: SK-MEL-2 melanoma
[35] = tested on: SK-MEL-5 melanoma
[36] = tested on: HCT-116 colon
[37] = tested on: IGROV1 ovarian
[38] = tested on: PC-3 prostate
[39] = tested on: CCRF-CEM leukemia
[40] = tested on: BT-549 breast
[41] = tested on: MDA-N
[42] = tested on: CAKI-1 renal
[43] = tested on: HS 578T breast
[44] = tested on: MCF7 breast
[45] = tested on: EKVX NSCLC
[46] = tested on: NCI-H460 lung
[47] = tested on: RPMI-8226 leukemia
[48] = tested on: A549 NSCLC
[49] = tested on: HCC-2998 colon
[50] = tested on: SF-295 CNS
[51] = tested on: RXF 393 renal

Measured: TGI

COC1OC(Cn2c(C)nc(Br)c2Br)C(O)C(O)C1O (stereo unspecified)
> 100 µM: [1] | [2] | [3] | [4] | [5] | [6] | [7] | [8] | [9] | [10] | [11] | [12] | [13] | [14] | [15] | [16] | [17] | [18] | [19] | [20] | [21] | [22] | [23] | [24] | [25] | [26] | [27] | [28] | [29] | [30] | [31] | [32] | [33] | [34] | [35] | [36] | [37] | [38] | [39] | [40] | [41] | [42] | [43] | [44] | [45] | [46] | [47] | [48] | [49] | [50] | [51]
